Values quoted from earlier work as cited in PMC11457607 (Oncoimmunology, 2024).

Columns and labels:
[1] = clinical diagnostic dye, i.v.
SSTR2 = conditions: cyclic peptide agonist; in words
SSTR5 = conditions: cyclic peptide agonist; in words
NETs = conditions: local irradiation, clinical trials

## O=C1OC2(c3ccc(O)cc3Oc3cc(O)ccc32)c2ccccc21 [fluorescein]
[1]
  safety of intravenous injection: without reported overt safety concerns

## DOTA-Tyr[3]-octreotate [DOTA-TATE]
SSTR2
  affinity to SSTR2: high affinity to SSTR2
SSTR5
  affinity to SSTR5: binds with a high affinity to SSTR2 and SSTR5

## [^177Lu]Lu-DOTA-TATE
NETs
  slowing progression of NETs: high specificity and efficacy in slowing the progression of NETs
